pEC50: −log10 of the molar value.
Target: T1, ΔF508-CFTR (Homo sapiens, UniProt P13569, DEL508-508)
T1 construct: expressed in transfected cells; host or cells: NIH3T3 mouse fibroblasts, stably expressing, temperature-corrected at 27 °C
Experiment: Membrane potential optical assay, identification of potentiator compounds
Type: cell-based
Conditions: assay not specified; ΔF508-CFTR potentiation, NIH 3T3 cells
Source text: Membrane Potential Optical Methods for Assaying ΔF508-CFTR Modulation Properties of Compounds
The assay utilizes fluorescent voltage sensing dyes to measure changes in membrane potential using a fluorescent plate reader (e.g., FLIPR III, Molecular Devices, Inc.) as a readout for increase in functional ΔF508-CFTR in NIH 3T3 cells. The driving force for the response is the creation of a chloride ion gradient in conjunction with channel activation by a single liquid addition step after the cells have previously been treated with compounds and subsequently loaded with a voltage sensing dye.
Identification of Potentiator Compounds
To identify potentiators of ΔF508-CFTR, a double-addition HTS assay format was developed. This HTS assay utilizes fluorescent voltage sensing dyes to measure changes in membrane potential on the FLIPR III as a measurement for increase in gating (conductance) of ΔF508 CFTR in temperature-corrected ΔF508 CFTR NIH 3T3 cells. The driving force for the response is a ion gradient in conjunction with channel activation with forskolin in a single liquid addition step using a fluorescent plate reader such as FLIPR III after the cells have previously been treated with potentiator compounds (or DMSO vehicle control) and subsequently loaded with a redistribution dye.
Bath Solution #1: (in mM) NaCl 160, KCl 4.5, CaCl2 2, MgCl2 1, HEPES 10, pH 7.4 with NaOH. […]

T1 sequence (P13569 with tags, fused parts or gaps DEL508-508): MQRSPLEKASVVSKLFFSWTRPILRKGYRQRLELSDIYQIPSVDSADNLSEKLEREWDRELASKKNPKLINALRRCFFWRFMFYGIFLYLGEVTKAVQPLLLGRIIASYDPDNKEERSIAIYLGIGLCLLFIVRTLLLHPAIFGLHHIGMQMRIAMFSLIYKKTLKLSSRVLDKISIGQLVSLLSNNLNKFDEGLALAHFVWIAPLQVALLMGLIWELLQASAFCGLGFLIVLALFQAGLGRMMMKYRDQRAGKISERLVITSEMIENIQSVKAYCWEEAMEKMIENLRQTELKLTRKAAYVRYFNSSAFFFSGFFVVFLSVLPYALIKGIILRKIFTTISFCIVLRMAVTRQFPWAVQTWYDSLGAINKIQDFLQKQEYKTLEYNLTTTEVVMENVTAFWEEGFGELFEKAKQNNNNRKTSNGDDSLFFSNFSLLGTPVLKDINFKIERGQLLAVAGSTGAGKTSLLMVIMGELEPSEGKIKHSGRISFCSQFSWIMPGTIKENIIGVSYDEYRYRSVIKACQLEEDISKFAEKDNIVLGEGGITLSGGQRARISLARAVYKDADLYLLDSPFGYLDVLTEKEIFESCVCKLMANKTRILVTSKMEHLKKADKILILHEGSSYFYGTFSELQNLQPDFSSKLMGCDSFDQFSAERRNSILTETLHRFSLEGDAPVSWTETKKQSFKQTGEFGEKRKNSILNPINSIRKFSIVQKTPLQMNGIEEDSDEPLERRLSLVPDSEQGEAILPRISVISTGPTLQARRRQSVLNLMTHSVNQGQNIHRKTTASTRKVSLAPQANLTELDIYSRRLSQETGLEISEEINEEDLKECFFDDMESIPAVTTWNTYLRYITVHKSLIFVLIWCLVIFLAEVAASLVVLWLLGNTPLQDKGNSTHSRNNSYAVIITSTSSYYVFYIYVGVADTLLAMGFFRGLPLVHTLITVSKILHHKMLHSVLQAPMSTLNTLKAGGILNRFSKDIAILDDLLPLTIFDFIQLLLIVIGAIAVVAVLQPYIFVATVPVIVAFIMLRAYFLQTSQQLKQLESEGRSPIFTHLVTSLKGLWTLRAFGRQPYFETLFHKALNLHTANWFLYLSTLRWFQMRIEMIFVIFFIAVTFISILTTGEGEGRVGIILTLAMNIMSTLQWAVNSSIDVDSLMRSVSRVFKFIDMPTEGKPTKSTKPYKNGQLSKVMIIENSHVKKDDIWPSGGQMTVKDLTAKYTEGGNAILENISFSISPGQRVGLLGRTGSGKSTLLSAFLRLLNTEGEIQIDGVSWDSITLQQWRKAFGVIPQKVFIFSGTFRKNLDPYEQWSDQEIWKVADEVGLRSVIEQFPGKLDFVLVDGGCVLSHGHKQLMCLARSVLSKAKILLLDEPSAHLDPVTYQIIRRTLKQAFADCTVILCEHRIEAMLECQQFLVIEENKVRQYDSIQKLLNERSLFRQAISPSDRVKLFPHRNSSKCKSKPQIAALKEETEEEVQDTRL

O=C(Nc1ccc(N2C3CCC2CC3)cc1C(F)(F)F)c1c[nH]c2cccc(C(F)(F)F)c2c1=O [Compound 1 Form A, N-(4-(7-azabicyclo[2.2.1]heptan-7-yl)-2-(trifluoromethyl)phenyl)-4-oxo-5-(trifluoromethyl)-1,4-dihydroquinoline-3-carboxamide]
pEC50: > 5.70

— patent US8754222B2, “Process for preparing modulators of cystic fibrosis transmembrane conductance regulator” (Vertex Pharmaceuticals Incorporated, priority 2009, dated 2014)
